Read-outs that look alike come from different tables or passages of the source.
Legend:
[1] = test system: THP1-Dual cells, NF-κB pathway (SEAP); assay: THP-1 Dual cell SEAP assay (L18-MDP stimulated); assay type: cell-based; settings: 10 ng/mL L18-MDP, 20-24 h, SEAP readout, read-out: IFNγ THP1 IC50
Experimental: THP1-Dual™ cells (InvivoGen Cat #thpd-nfis) allow simultaneous assessment of the NF-κB pathway, by monitoring the activity of secreted embryonic alkaline phosphatase (SEAP) as well as the IRF pathway, by assessing the activity of a secreted luciferase (Lucia). Cells were cultured according to manufacturers' recommendations. For the assay, cell concentration was adjusted to 7.14×10^5 cells/mL in assay media (RPMI 1640, 2 mM L-Glutamine, 25 mM HEPES, 10% fetal bovine serum (heat-inactivated for 30 min at 56° C.), Pen-Strep (100 U/mL)) and 35 μL of cell suspension (˜25,000 cells) per well were added to a flat bottom 384-well plate (white opaque). Plate was centrifuged at 300 g for 2 min, compounds were added in serial dilution series according to the plate layout (volumes ˜500 nL-0.0152 nL) and plate was incubated at 37° C. in 5% CO2 for 30 min. Using assay media, a L18-MDP stock solution, that results in a final concentration of 10 ng/mL L18-MDP in each well when adding 15 μL to each well, was prepared. 15 μL of L18-MDP stock solution was added to each well, while 15 μL of assay media was added to the negative control wells. Plates were subsequently incubated at 37° C. in 5% CO2 overnight (20-24 h).
For the SEAP assay: without disturbing the cells at the bottom of the well, 15 μL supernatant was transferred to a clear 384-well flat bottom plate and 35 μL QUANTI-Blue Solution per well was added. Following a 2 h incubation at 37° C., the optical density (OD) was measured at 620-655 nm using a microplate reader (PheraStar FS microplate reader with protocol for OD 620-655 nm).
Values of media-only wells were subtracted and % inhibition for each compound concentration relative to the DMSO/L18-MDP-treated controls was calculated. Inhibition values+/−SD were fitted by non-linear regression using Prism software (GraphPad PRISM Software) to calculate IC50 values.

RIPK2 (KD)/XIAP (BIR2) = target: T1, RIPK2 (KD)/XIAP (BIR2) (Homo sapiens, UniProt O43353); assay: RIPK2-XIAP binding competition PPI assay (TR-FRET); settings: for Emax / PPI Amax: 50 nM of GSK583 = -100% activity; for Emax: read-out: PPI Amax; for IC50: GST-RIPK2 / His-XIAP (BIR2)-avi, 120 min at 23° C.
T1 construct: made in house; host or cells: baculovirus-infected Sf9 cells
Text: The ability of selected compounds of Formula (I) to inhibit the binding of an His-XIAP (BIR2)-avi fusion protein to a GST-RIPK2 fusion protein was quantified employing the TR-FRET-based competition assay as described in the following paragraphs.
Recombinant fusion protein of N-terminal Glutathione-S-Transferase (GST) and a fragment of human RIPK2 (amino acids 1-310 of accession number 043353), expressed in baculovirus infected Sf9 cells, purified via glutathione affinity chromatography, was used as GST-RIPK2 fusion protein. Recombinant fusion protein of N-terminal 6xHistidine (His), a fragment of human XIAP (amino acids 152-231 of accession number P98170), and C-terminal avi tag, expressed in baculovirus infected Sf9 cells, purified via Nickel NTA affinity chromatography, was used as the His-XIAP (BIR2)-avi fusion protein.
For the assay, a working solution of 1 nM GST-RIPK2, 25 nM His-XIAP (BIR2)-avi, 6 nM Anti-His-XL665 […] (Revvity Catalogue No. 61HISXLB), and 0.5 nM Anti-GST-Tb(Revvity Catalogue No. 61GSTTLB) in 25 mM Tris-HCl 7.5, 0.5 mM ethylene glycol-bis(2-aminoethylether)-N,N,N′,N′-tetraacetic acid (EGTA), 10 mM magnesium chloride (MgCl2), 2.5 mM dithiothreitol (DTT), 0.01% (w/v) bovine serum albumin (BSA), 0.005% (w/v) Pluronic F-127 (Sigma), 0.5 mM sodium ortho-vanadate, 5 mM-Glycerophosphate disodium salt hydrate (BGP) was prepared. 50 nL of a 100-fold concentrated solution of each test compound in DMSO was dispensed via acoustic dispensing into a white low volume 384-well microtiter plate (Perkin Elmer Catalogue No. 6008280). Subsequently, 5 μL of the assay working solution were added.
The resulting mixture was incubated 120 min at 23° C. Subsequently, the amount of complex formed by the GST-RIPK2, XIAP (BIR2)-avi, Anti-His-XL665, and Anti-GST-Tb was evaluated by measurement of the resonance energy transfer from the Tb-cryptate to the XL665. Therefore, the fluorescence emissions at 520 nm and 665 nm after excitation at 337 nm were measured in a TR-FRET reader, e.g. a Pherastar FS(BMG Labtechnologies, Offenburg, Germany) or an Envision (PerkinElmer). The ratio of the emissions at 665 nm and at 520 nm was taken as the measure of the amount of the complex. The data were normalized (assay reaction without inhibitor=0% activity, 50 nM of GSK583=−100% activity).

T1 sequence (O43353 1-310): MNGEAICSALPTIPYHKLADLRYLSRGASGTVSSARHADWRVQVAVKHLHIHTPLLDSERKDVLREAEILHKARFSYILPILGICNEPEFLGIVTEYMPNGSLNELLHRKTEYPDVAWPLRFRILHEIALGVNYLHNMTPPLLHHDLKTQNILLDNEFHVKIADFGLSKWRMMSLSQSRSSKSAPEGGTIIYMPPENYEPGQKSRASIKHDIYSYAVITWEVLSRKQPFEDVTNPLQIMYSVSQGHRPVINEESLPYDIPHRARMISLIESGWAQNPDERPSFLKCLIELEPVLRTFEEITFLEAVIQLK

SMILES: COc1cc2ncc(-c3cc(C(=O)N[C@@H]4C[C@@H]4c4ccccc4)n(C)n3)n2cc1S(=O)(=O)C(C)(C)C (single isomer, unassigned) [Example 30, cis-(1S,2S) or (1R,2R) 3-(6-(tert-butylsulfonyl)-7-methoxyimidazo[1,2-a]pyridin-3-yl)-1-methyl-N-(2-phenylcyclopropyl)-1H-pyrazole-5-carboxamide]
- IC50 ([1]; Homo sapiens): > 2.5 µM
- Emax (RIPK2 (KD)/XIAP (BIR2)): 30 to 55%
- IC50 (RIPK2 (KD)/XIAP (BIR2)): > 1 µM

SMILES: COc1cc2ncc(-c3cc(C(=O)N[C@@H]4C[C@@H]4c4ccccc4)n(C)n3)n2cc1S(=O)(=O)C(C)(C)C (single isomer, unassigned) [Example 31, cis-(1R,2R) or (1S,2S) 3-(6-(tert-butylsulfonyl)-7-methoxyimidazo[1,2-a]pyridin-3-yl)-1-methyl-N-(2-phenylcyclopropyl)-1H-pyrazole-5-carboxamide]
- IC50 [1]: > 2.5 µM
- PPI Amax (RIPK2 (KD)/XIAP (BIR2)): D (Amax of ≤30%)
- IC50 (RIPK2 (KD)/XIAP (BIR2)): > 1 µM

SMILES: COc1cc2ncc(-c3cc(C(=O)N[C@@H]4C[C@H]4c4ccccc4)n(C)n3)n2cc1S(=O)(=O)C(C)(C)C (single isomer, unassigned) [Example 33, trans-(1R,2S) or (1S,2R) 3-(6-(tert-butylsulfonyl)-7-methoxyimidazo[1,2-a]pyridin-3-yl)-1-methyl-N-(2-phenylcyclopropyl)-1H-pyrazole-5-carboxamide]
- IC50 ([1]; Homo sapiens): > 2.5 µM
- Emax (RIPK2 (KD)/XIAP (BIR2)): ≥ 80%
- IC50 (RIPK2 (KD)/XIAP (BIR2)): 0.1 to 1 µM

SMILES: COc1cc2ncc(-c3cc(C(=O)N[C@@H]4C[C@H]4c4ccccc4)n(C)n3)n2cc1S(=O)(=O)C(C)(C)C (single isomer, unassigned) [Example 34, trans-(1S,2R) or (1R,2S) 3-(6-(tert-butylsulfonyl)-7-methoxyimidazo[1,2-a]pyridin-3-yl)-1-methyl-N-(2-phenylcyclopropyl)-1H-pyrazole-5-carboxamide]
- IC50 [1]: > 2.5 µM
- PPI Amax (RIPK2 (KD)/XIAP (BIR2)): A (Amax of ≥80%)
- IC50 (RIPK2 (KD)/XIAP (BIR2)): > 1 µM

SMILES: COc1cc2ncc(-c3cc(C(=O)Nc4ccccc4)n(C)n3)n2cc1S(=O)(=O)C(C)(C)C [Example 7, 3-(6-(tert-butylsulfonyl)-7-methoxyimidazo[1,2-a]pyridin-3-yl)-1-methyl-N-phenyl-1H-pyrazole-5-carboxamide]
- IC50 ([1]; Homo sapiens): > 2.5 µM
- Emax (RIPK2 (KD)/XIAP (BIR2)): ≥ 80%
- IC50 (RIPK2 (KD)/XIAP (BIR2)): > 1 µM

SMILES: COc1cc2ncc(-c3cc(C(=O)N[C@@H](C)c4ccccc4)n(C)n3)n2cc1S(=O)(=O)C(C)(C)C [Example 8, (S)-3-(6-(tert-butylsulfonyl)-7-methoxyimidazo[1,2-a]pyridin-3-yl)-1-methyl-N-(1-phenylethyl)-1H-pyrazole-5-carboxamide]
- IC50 ([1]; Homo sapiens): > 2.5 µM
- Emax (RIPK2 (KD)/XIAP (BIR2)): ≥ 80%
- IC50 (RIPK2 (KD)/XIAP (BIR2)): > 1 µM

SMILES: COc1cc2ncc(-c3cc(C(=O)N[C@H](C)c4ccccc4)n(C)n3)n2cc1S(=O)(=O)C(C)(C)C [Example 9, (R)-3-(6-(tert-butylsulfonyl)-7-methoxyimidazo[1,2-a]pyridin-3-yl)-1-methyl-N-(1-phenylethyl)-1H-pyrazole-5-carboxamide]
- IC50 ([1]; Homo sapiens): < 0.1 µM
- Emax (RIPK2 (KD)/XIAP (BIR2)): ≥ 80%
- IC50 (RIPK2 (KD)/XIAP (BIR2)): 0.01 to 0.1 µM

SMILES: COc1cc2ncc(-c3cc(C(=O)N[C@H](C)c4ccccc4F)n(C)n3)n2cc1S(=O)(=O)C(C)(C)C [Example 10, (R)-3-(6-(tert-butylsulfonyl)-7-methoxyimidazo[1,2-a]pyridin-3-yl)-N-(1-(2-fluorophenyl)ethyl)-1-methyl-1H-pyrazole-5-carboxamide]
- IC50 ([1]; Homo sapiens): 0.1 to 0.5 µM
- Emax (RIPK2 (KD)/XIAP (BIR2)): ≥ 80%
- IC50 (RIPK2 (KD)/XIAP (BIR2)): 0.01 to 0.1 µM

SMILES: COc1cc2ncc(-c3cc(C(=O)N[C@H](CO)c4ccccc4)n(C)n3)n2cc1S(=O)(=O)C(C)(C)C [Example 11, (S)-3-(6-(tert-butylsulfonyl)-7-methoxyimidazo[1,2-a]pyridin-3-yl)-N-(2-hydroxy-1-phenylethyl)-1-methyl-1H-pyrazole-5-carboxamide]
- IC50 ([1]; Homo sapiens): > 2.5 µM
- Emax (RIPK2 (KD)/XIAP (BIR2)): ≤ 30%
- IC50 (RIPK2 (KD)/XIAP (BIR2)): > 1 µM

SMILES: COc1cc2ncc(-c3cc(C(=O)N[C@H](C)c4ccc(F)cc4)n(C)n3)n2cc1S(=O)(=O)C(C)(C)C [Example 12, (R)-3-(6-(tert-butylsulfonyl)-7-methoxyimidazo[1,2-a]pyridin-3-yl)-N-(1-(4-fluorophenyl)ethyl)-1-methyl-1H-pyrazole-5-carboxamide]
- IC50 ([1]; Homo sapiens): 0.5 to 2.5 µM
- Emax (RIPK2 (KD)/XIAP (BIR2)): ≥ 80%
- IC50 (RIPK2 (KD)/XIAP (BIR2)): 0.1 to 1 µM

SMILES: COc1cc2ncc(-c3cc(C(=O)N[C@H](C)c4cccc(F)c4)n(C)n3)n2cc1S(=O)(=O)C(C)(C)C [Example 13, (R)-3-(6-(tert-butylsulfonyl)-7-methoxyimidazo[1,2-a]pyridin-3-yl)-N-(1-(3-fluorophenyl)ethyl)-1-methyl-1H-pyrazole-5-carboxamide]
- IC50 ([1]; Homo sapiens): > 2.5 µM
- Emax (RIPK2 (KD)/XIAP (BIR2)): ≥ 80%
- IC50 (RIPK2 (KD)/XIAP (BIR2)): 0.1 to 1 µM

SMILES: COc1cc2ncc(-c3cc(C(=O)NCc4n[nH]c5ccccc45)n(C)n3)n2cc1S(=O)(=O)C(C)(C)C [Example 14, N-((1H-indazol-3-yl)methyl)-3-(6-(tert-butylsulfonyl)-7-methoxyimidazo[1,2-a]pyridin-3-yl)-1-methyl-1H-pyrazole-5-carboxamide]
- IC50 ([1]; Homo sapiens): 0.1 to 0.5 µM
- Emax (RIPK2 (KD)/XIAP (BIR2)): ≥ 80%
- IC50 (RIPK2 (KD)/XIAP (BIR2)): < 0.01 µM

SMILES: COc1cc2ncc(-c3cc(C(=O)NCc4nn(C)c5ccccc45)n(C)n3)n2cc1S(=O)(=O)C(C)(C)C [Example 15, 3-(6-(tert-butylsulfonyl)-7-methoxyimidazo[1,2-a]pyridin-3-yl)-1-methyl-N-((1-methyl-1H-indazol-3-yl)methyl)-1H-pyrazole-5-carboxamide]
- IC50 ([1]; Homo sapiens): > 2.5 µM
- Emax (RIPK2 (KD)/XIAP (BIR2)): 55 to 80%
- IC50 (RIPK2 (KD)/XIAP (BIR2)): 0.1 to 1 µM

SMILES: COc1cc2ncc(-c3cc(C(=O)NCc4c5ccccc5nn4C)n(C)n3)n2cc1S(=O)(=O)C(C)(C)C [Example 16, 3-(6-(tert-butylsulfonyl)-7-methoxyimidazo[1,2-a]pyridin-3-yl)-1-methyl-N-((2-methyl-2H-indazol-3-yl)methyl)-1H-pyrazole-5-carboxamide]
- IC50 ([1]; Homo sapiens): > 2.5 µM
- Emax (RIPK2 (KD)/XIAP (BIR2)): 55 to 80%
- IC50 (RIPK2 (KD)/XIAP (BIR2)): > 1 µM

SMILES: COc1cc2ncc(-c3cc(C(=O)NCc4cnn5ccccc45)n(C)n3)n2cc1S(=O)(=O)C(C)(C)C [Example 17, 3-(6-(tert-butylsulfonyl)-7-methoxyimidazo[1,2-a]pyridin-3-yl)-1-methyl-N-(pyrazolo[1,5-a]pyridin-3-ylmethyl)-1H-pyrazole-5-carboxamide]
- IC50 ([1]; Homo sapiens): > 2.5 µM
- Emax (RIPK2 (KD)/XIAP (BIR2)): 55 to 80%
- IC50 (RIPK2 (KD)/XIAP (BIR2)): > 1 µM

SMILES: COc1cc2ncc(-c3cc(C(=O)NCc4n[nH]c5cccnc45)n(C)n3)n2cc1S(=O)(=O)C(C)(C)C [Example 18, N-((1H-pyrazolo[4,3-b]pyridin-3-yl)methyl)-3-(6-(tert-butylsulfonyl)-7-methoxyimidazo[1,2-a]pyridin-3-yl)-1-methyl-1H-pyrazole-5-carboxamide]
- IC50 ([1]; Homo sapiens): 0.5 to 2.5 µM
- Emax (RIPK2 (KD)/XIAP (BIR2)): ≥ 80%
- IC50 (RIPK2 (KD)/XIAP (BIR2)): 0.01 to 0.1 µM

— patent US20260091026A1, “METHODS OF TREATING INFLAMMATORY DISEASES” (INTERLINE THERAPEUTICS, INC., priority 2023, published 2026)
